Test results as given in patent US9023616B2, “Oil producing microbes and method of modification thereof” (DSM Nutritional Products AG, priority 2006, dated 2015).

How the values were obtained:
ONC-T18 [1] = assay: Carotenoid content of ONC-T18 exposed to Norflurazon; assay type: cell-based, Thraustochytrium sp. ONC-T18
Method: Cells were harvested by centrifugation at 3800×g and washed with phosphate buffered saline. Then resuspended in 10× volume of acetone (Sigma-Aldrich, St Louis, Mo., USA), agitated for 5 minutes at 200 RPM, centrifuged at 3,800×g for 5 mins and concentrated to dryness by N2 evaporation. Followed by resuspension in a minimal amount of 10% acetone in hexane prior to HPLC analysis. Identifications were carried out on an Agilent 1100 HPLC (Agilent, Palo Alto, Calif., USA) equipped with a variable wavelength detector set at 470 nm. Samples were injected through a Symmetry C18 guard column (Waters, Milford, Mass., USA) to a Bondclone C18 reverse-phase column (Phenomenex, Torrance, Calif., USA; […] particles; 3.9×300 mm i.d.). The injection volume was 10 μl and a flow of 1 ml min^−1 10% acetone in hexane over a 25 minute period was used. Carotenoid identity was further confirmed with mass spectrometry analysis (Micromass ESI-QT of MS, Waters, Milford, Mass., USA). Quantitative data for each carotenoid was based on the development of a calibration curve using standards (astaxanthin, zeaxanthin, canthaxanthin, echinenone and β-carotene) and comparing peak area with defined concentrations.

ONC-T18 [2] = assay: Fatty acid production antagonist supplementation of ONC-T18 culture, fatty acid profile by FAME GC-FID; assay type: cell-based, Thraustochytrium sp. ONC-T18; conditions: for DHA accumulated in ONC-T18, change versus control (in words): antagonist added to medium
Method: Media containing 25 g/l sea salt and 1 g/l yeast extract was autoclaved at 120° C. for 20 minutes. Sterilized glucose was added to the media at a concentration of 9 g/l. Sethoxydim (Supleco) was dissolved in dimethyl sulfoxide at a concentration of 5 mg/ml was then added to the media at to represent a final concentration of 100 µM. 1 ml of a 24 hour pre-culture of ONC-T 18 that had been cultured in the same media was added. Culturing was carried out in a shaker (130 rpm) for four days at room temperature. After the incubation period, cells were harvested by centrifugation at 4300 rpm for 10 minutes. The cell pellets were then freeze-dried, weighed and the oil was extracted from the cells.
(§1) The lipids were extracted and derivatized to fatty acid methyl esters (FAME) for gas chromatography analysis (GC). Transesterification and extraction was done using 200 mg freeze dried cells, with C19:0 as internal standard, added transesterification reaction mix (methanol:hydrochloric acid:chloroform, 10:1:1) mixed and heated at 90° C. for 2 hours, then allowed to cool at room temperature. FAMEs were extracted by adding 1 ml water, and 2 ml hexane:chloroform (4:1), and allow organic and aqueous phases to separate. The organic layer was extracted and treated with 0.5 g of anhydrous sodium sulfate to remove particulates and residual water. The organic solvents were evaporated under a stream of argon. The FAMEs were re-suspended in 5 ml of iso-octane and analyzed by GC-FID. The percent conversion was calculated by dividing the product produced by the sum of (the product produced plus the substrate added) and then multiplying by 100.
Media containing 6 g/l sea salt, 2 g/l yeast extract, and 8 g/l L-glutamic acid monosodium salt hydrate was autoclaved at 120° C. for 20 minutes. Sterilized D+-glucose was then added to this media at a concentration of 40 g/l. Cerulenin dissolved in ethanol at a concentration of 5 mg/ml was added to 250 ml flask and the solvent was evaporated for 1 hour prior to adding the media to the flask. The amount of cerulenin in the flask represented a final concentration of 20 mg/l. ONC-T18 was then added to the medium from a plate culture and culturing occurred in a shaker (130 rpm) at room temperature for four days. After the incubation period, cells were harvested by centrifugation at 4300 rpm for 10 minutes, washed once with distilled water, and then centrifuged again at 4300 rpm for 10 minutes. The cell pellets were then freeze-dried, weighed and the oil was extracted from the cells.
as §1, with “produced+the” for “produced plus the”
Media containing 6 g/l sea salt, 2 g/l yeast extract, and 8 g/l L-glutamic acid monosodium salt hydrate was autoclaved at 120° C. for 20 minutes. Sterilized D+-glucose wad then added at a concentration of 5 g/l or was not added to the media. Oleic acid was added to the media to represent a final concentration of 2 ml/l. […]

[3] = presence of the antagonist, oleic acid without glucose

CNc1cnn(-c2cccc(C(F)(F)F)c2)c(=O)c1Cl [norflurazon]
carotenoid content of ONC-T18 (in words) (ONC-T18 [1]): carotenoid content decreased
DHA accumulated in ONC-T18, change versus control (in words) (ONC-T18 [2]): increase in the content and proportion of DHA
DHA accumulated in ONC-T18, change versus control (in words) (ONC-T18 [2]; listed as Norflurazon): DHA increase
proportion of PUFA in ONC-T18 fatty acid profile (in words) (ONC-T18 [2]; increasing amount added): proportion of PUFA increased
adrenic acid, lipid as percentage of total fatty acid (ONC-T18 [2]; [3]): 0.17%
arachidic acid, lipid as percentage of total fatty acid (ONC-T18 [2]; [3]): 0.16%
arachidonic acid, lipid as percentage of total fatty acid (ONC-T18 [2]; [3]): 0.19%
behenic acid, lipid as percentage of total fatty acid (ONC-T18 [2]; [3]): 0.05%
docosadienoic acid, lipid as percentage of total fatty acid (ONC-T18 [2]; [3]): 0.03%
docosahexaenoic acid, lipid as percentage of total fatty acid (ONC-T18 [2]; [3]): 20.61%
docosapentaenoic acid n-3, lipid as percentage of total fatty acid (ONC-T18 [2]; [3]): 0.19%
docosapentaenoic acid n-6, lipid as percentage of total fatty acid (ONC-T18 [2]; [3]): 5.23%
eicosadienoic acid, lipid as percentage of total fatty acid (ONC-T18 [2]; [3]): 0.13%
eicosapentaenoic acid, lipid as percentage of total fatty acid (ONC-T18 [2]; [3]): 0.76%
eicosatetraenoic acid, lipid as percentage of total fatty acid (ONC-T18 [2]; [3]): 0.24%
eicosatrienoic acid, lipid as percentage of total fatty acid (ONC-T18 [2]; [3]): 0.00%
eicosenoic acid, lipid as percentage of total fatty acid (ONC-T18 [2]; [3]): 0.02%
heneicosapentaenoic acid, lipid as percentage of total fatty acid (ONC-T18 [2]; [3]): 0.00%
hexacosanoic acid, lipid as percentage of total fatty acid (ONC-T18 [2]; [3]): 0.00%
homo-gamma-linolenic acid, lipid as percentage of total fatty acid (ONC-T18 [2]; [3]): 0.18%
lignoceric acid, lipid as percentage of total fatty acid (ONC-T18 [2]; [3]): 0.00%
margaric acid, lipid as percentage of total fatty acid (ONC-T18 [2]; [3]): 1.03%
myristic acid, lipid as percentage of total fatty acid (ONC-T18 [2]; [3]): 11.08%
myristoleic acid, lipid as percentage of total fatty acid (ONC-T18 [2]; [3]): 0.12%
nervonic acid, lipid as percentage of total fatty acid (ONC-T18 [2]; [3]): 0.00%
oleic acid, lipid as percentage of total fatty acid (ONC-T18 [2]; [3]): 0.00%
palmitic acid, lipid as percentage of total fatty acid (ONC-T18 [2]; [3]): 40.61%
palmitoleic acid, lipid as percentage of total fatty acid (ONC-T18 [2]; [3]): 10.65%
pentadecanoic acid, lipid as percentage of total fatty acid (ONC-T18 [2]; [3]): 3.16%
pentadecenoic acid, lipid as percentage of total fatty acid (ONC-T18 [2]; [3]): 0.33%
stearic acid, lipid as percentage of total fatty acid (ONC-T18 [2]; [3]): 1.52%
vaccenic acid, lipid as percentage of total fatty acid (ONC-T18 [2]; [3]): 3.53%
